Where a name gives a salt, the structure may show the parent alone. Read-outs that look alike come from different tables or passages of the source.
How the values were obtained:
[1] = test system: human Hep G2 cells (ATCC HB-8065); assay: Cytotoxicity in Hep G2 cells (CellTiter-Glo); type: cell-based
SARS-CoV-2 PLpro = biological target: T1, SARS-CoV-2 PLpro (Severe acute respiratory syndrome coronavirus 2, UniProt P0DTD1); assay: biochemical
T1 construct: containing 60 nM papain-like protease

[2] = Hep G2 cells, 100 μM test article, 24-hour exposure
[3] = 60 nM papain-like protease, 50 μM Z-RLRGG-AMC, pH 7.5, 37° C., read-out: SARS-CoV-2 PLpro IC50

Cc1ccc(C2=CCNCC2)cc1C(=O)N[C@H](C)c1cccc2ccccc12 [Example 154, 2-Methyl-N-[(1R)-1-(1-naphthyl)ethyl]-5-(1,2,3,6-tetrahydropyridin-4-yl)benzamide]
% Cell Viability ([1]; human, 24 h, 100 μM): 2.1% | IC50 (SARS-CoV-2 PLpro): < 2 µM

Cc1ccc(N2CCN(C)CC2)cc1C(=O)N[C@H](C)c1cccc(-c2cc(CO)cc(CO)c2)c1 [Example 81, N-[(1R)-1-[3-[3,5-Bis(hydroxymethyl)phenyl]phenyl]ethyl]-2-methyl-5-(4-methylpiperazin-1-yl)benzamide]
% Cell Viability [1, 2]: 94.4% | IC50 (SARS-CoV-2 PLpro; [3]): < 2 µM

COc1ccc([C@@H](C)NC(=O)c2cc(C3CCN(C)CC3)ccc2C)cc1Br [Example 299, N-[(1R)-1-(3-Bromo-4-methoxy-phenyl)ethyl]-2-methyl-5-(1-methyl-4-piperidyl)benzamide]
% Cell Viability [1, 2]: 76.2% | IC50 (SARS-CoV-2 PLpro; [3]): < 2 µM

Cc1ccc(N2CCN(C)C(C)C2)cc1C(=O)N[C@H](C)c1cccc2ccccc12 (stereo partly drawn) [Example 126, 5-(3,4-Dimethylpiperazin-1-yl)-2-methyl-N-[(1R)-1-(1-naphthyl)ethyl]benzamide]
% Cell Viability [1, 2]: 62.8% | IC50 (SARS-CoV-2 PLpro; [3]): < 2 µM

Cc1ccc(N2CCN(C)CC2)cc1C(=O)N[C@H](C)c1cccc(Br)c1 [Example 22, N-[(1R)-1-(3-Bromophenyl)ethyl]-2-methyl-5-(4-methylpiperazin-1-yl)benzamide]
% Cell Viability [1, 2]: 65.5% | IC50 (SARS-CoV-2 PLpro; [3]): < 5 µM

C[C@@H](NC(=O)c1cccc(C2CCNCC2)c1)c1cccc2ccccc12 [Example 6, N-[(1R)-1-(1-Naphthyl)ethyl]-3-(4-piperidyl)benzamide Hydrochloride Salt]
% Cell Viability [1, 2]: 0.6% | IC50 (SARS-CoV-2 PLpro; [3]): < 20 µM

Cc1ccc(N2CCNCC2)cc1C(=O)N[C@H](C)c1cccc2ccccc12 [Example 108, 2-Methyl-N-[(1R)-1-(1-naphthyl)ethyl]-5-piperazin-1-yl-benzamide]
% Cell Viability [1, 2]: 2.1% | IC50 (SARS-CoV-2 PLpro; [3]): < 2 µM

Cc1ccc(C2CCNCC2)cc1C(=O)N[C@H](C)c1cccc2ccccc12 [Example 156, 2-Methyl-N-[(1R)-1-(1-napthyl)ethyl]-5-(4-piperidyl)benzamide]
% Cell Viability [1, 2]: 0.6% | IC50 (SARS-CoV-2 PLpro; [3]): < 2 µM

C[C@@H](NC(=O)c1cc(C2CCNC2)ccc1Cl)c1cccc2ccccc12 (stereo partly drawn) [Example 147, 2-chloro-N-[(1R)-1-(1-naphthyl)ethyl]-5-pyrrolidin-3-yl-benzamide]
% Cell Viability [1, 2]: 0.8% | IC50 (SARS-CoV-2 PLpro; [3]): < 5 µM

COc1ccc([C@@H](C)NC(=O)c2cc(N3CCNC4(CC4)C3)ccc2C)cc1-c1cnn(C)c1 [Example 241, 5-(4,7-Diazaspiro[2.5]octan-7-yl)-N-[(1R)-1-[4-methoxy-3-(1-methylpyrazol-4-yl)phenyl]ethyl]-2-methyl-benzamide]
% Cell Viability [1, 2]: 84.2% | IC50 (SARS-CoV-2 PLpro; [3]): < 5 µM

Cc1ccc(N2CCN(C)CC2)cc1C(=O)N[C@H](C)c1cccc(-c2cccc(C(=O)N3CC[C@H](O)C3)c2)c1 [Example 95, N-[(1R)-1-[3-[3-[(3S)-3-Hydroxypyrrolidine-1-carbonyl]phenyl]phenyl]ethyl]-2-methyl-5-(4-methylpiperazin-1-yl)benzamide]
% Cell Viability [1, 2]: 88.5% | IC50 (SARS-CoV-2 PLpro; [3]): < 2 µM

Cc1ccc(N2C[C@H]3C[C@@H]2CN3C)cc1C(=O)N[C@H](C)c1cccc2ccccc12 [Example 121, 2-Methyl-5-[(1R,4R)-5-methyl-2,5-diazabicyclo[2.2.1]heptan-2-yl]-N-[(1R)-1-(naphthalen-1-yl)ethyl]benzamide]
% Cell Viability [1, 2]: 75.1% | IC50 (SARS-CoV-2 PLpro; [3]): < 2 µM

Cc1ccc(N2CCN(C)CC2)cc1C(=O)N[C@H](C)c1cccc(-c2ccc(=O)n(C)c2)c1 [Example 48, 2-Methyl-N-[(1R)-1-[3-(1-methyl-6-oxo-3-pyridyl)phenyl]ethyl]-5-(4-methylpiperazin-1-yl)benzamide]
% Cell Viability [1, 2]: 63.6% | IC50 (SARS-CoV-2 PLpro; [3]): < 5 µM

COc1ccc([C@@H](C)NC(=O)c2cc(N3CCN(C)CC3)ccc2C)cc1-c1cnn(C)c1C [Example 246, N-[(1R)-1-[3-(1,5-Dimethylpyrazol-4-yl)-4-methoxy-phenyl]ethyl]-2-methyl-5-(4-methylpiperazin-1-yl)benzamide]
% Cell Viability [1, 2]: 81.4% | IC50 (SARS-CoV-2 PLpro; [3]): < 2 µM

Cc1ccc(N2CCN(C)CC2)cc1C(=O)N[C@H](C)c1cccc(-c2cccc(C(=O)NC[C@H](O)CO)c2)c1 [Example 89]
% Cell Viability [1, 2]: 96.2% | IC50 (SARS-CoV-2 PLpro; [3]): < 5 µM

COc1ccc([C@@H](C)NC(=O)c2cc(N3CCC4(CC3)CNC4)ccc2C)cc1-c1cnn(C)c1 [Example 259, 5-(2,7-Diazaspiro[3.5]nonan-7-yl)-N-[(1R)-1-[4-methoxy-3-(1-methylpyrazol-4-yl)phenyl]ethyl]-2-methyl-benzamide]
% Cell Viability [1, 2]: 111.1% | IC50 (SARS-CoV-2 PLpro; [3]): < 2 µM

Cc1ccc(N2CCN(C)CC2)cc1C(=O)N[C@H](C)c1cccc(-c2ccccc2)c1 [Example 27, 2-Methyl-5-(4-methylpiperazin-1-yl)-N-[(1R)-1-(3-phenylphenyl)ethyl]benzamide]
% Cell Viability [1, 2]: 1.0% | IC50 (SARS-CoV-2 PLpro; [3]): < 2 µM

COc1cc(-c2cnn(C)c2)cc([C@@H](C)NC(=O)c2cc(N3CCN4CCCC4C3)ccc2C)c1 (stereo partly drawn) [Example 243, 5-(3,4,6,7,8,8a-Hexahydro-1H-pyrrolo[1,2-a]pyrazin-2-yl)-N-[(1R)-1-[3-methoxy-5-(1-methylpyrazol-4-yl)phenyl]ethyl]-2-methyl-benzamide]
% Cell Viability [1, 2]: 70.9% | IC50 (SARS-CoV-2 PLpro; [3]): < 2 µM

CCn1cc(-c2cc([C@@H](C)NC(=O)c3cc(N4CCN(C)CC4)ccc3C)ccc2OC)cn1 [Example 213, N-[(1R)-1-[3-(1-Ethylpyrazol-4-yl)-4-methoxy-phenyl]ethyl]-2-methyl-5-(4-methylpiperazin-1-yl)benzamide]
% Cell Viability [1, 2]: 67.2% | IC50 (SARS-CoV-2 PLpro; [3]): < 2 µM

Cc1ccc(N2CCN(C)CC2)cc1C(=O)N[C@H](C)c1cccc(-c2cccc(C(=O)NCCN(C)C)c2)c1 [Example 94, N-[(1R)-1-[3-[3-[2-(Dimethylamino)ethylcarbamoyl]phenyl]phenyl]ethyl]-2-methyl-5-(4-methylpiperazin-1-yl)benzamide]
% Cell Viability [1, 2]: 17.3% | IC50 (SARS-CoV-2 PLpro; [3]): < 2 µM

Cc1ccc(N2CCN(C)CC2)cc1C(=O)N[C@H](C)c1ccc(OC(C)C)c(-c2cnn(C)c2)c1 [Example 250, N-[(1R)-1-[4-isopropoxy-3-(1-methylpyrazol-4-yl)phenyl]ethyl]-2-methyl-5-(4-methylpiperazin-1-yl)benzamide]
% Cell Viability [1, 2]: 93.0% | IC50 (SARS-CoV-2 PLpro; [3]): < 2 µM

Cc1ccc(N2CCN(C)CC2)cc1C(=O)N[C@H](C)c1cccc(-c2cc[nH]n2)c1 [Example 49, 2-Methyl-5-(4-methylpiperazin-1-yl)-N-[(1R)-1-[3-(1H-pyrazol-3-yl)phenyl]ethyl]benzamide]
% Cell Viability [1, 2]: 82.7% | IC50 (SARS-CoV-2 PLpro; [3]): < 2 µM

Cc1ccc(N2CCN(C)CC2)cc1C(=O)N[C@H](C)c1cccc(-c2cccc(C(=O)NCCN)c2)c1 [Example 98, N-[(1R)-1-[3-[3-(2-Aminoethylcarbamoyl)phenyl]phenyl]eth-yl]-2-methyl-5-(4-methylpiperazin-1-yl)benzamide]
% Cell Viability [1, 2]: 98.5% | IC50 (SARS-CoV-2 PLpro; [3]): < 2 µM

Cc1ccc(N2CCN(C)CC2)cc1C(=O)N[C@H](C)c1cc(O)cc(-c2cnn(C)c2)c1 [Example 275, N-[(1R)-1-[3-Hydroxy-5-(1-methylpyrazol-4-yl)phenyl]ethyl]-2-methyl-5-(4-methylpiperazin-1-yl)benzamide]
% Cell Viability [1, 2]: 80.7% | IC50 (SARS-CoV-2 PLpro; [3]): < 2 µM

Cc1ccc(N2CCN(C)CC2)cc1C(=O)N[C@H](C)c1cccc(-c2cccc(N3CCN(CCC(=O)O)CC3)c2)c1 [Example 167, 3-[4-[3-[3-[(1R)-1-[[2-Methyl-5-(4-methylpiperazin-1-yl)benzoyl]amino]ethyl]phenyl]phe-nyl]piperazin-1-yl]propanoic acid]
% Cell Viability [1, 2]: 110.4% | IC50 (SARS-CoV-2 PLpro; [3]): < 2 µM

Cc1ccc(N2CCN(C)CC2)cc1C(=O)N[C@H](C)c1cccc(-c2cccc(C(=O)NCCO)c2)c1 [Example 97, N-[(1R)-1-[3-[3-(2-Hydroxyethylcarbamoyl)phenyl]phenyl]ethyl]-2-methyl-5-(4-methylpiperazin-1-yl)benzamide]
% Cell Viability [1, 2]: 72.1% | IC50 (SARS-CoV-2 PLpro; [3]): < 2 µM

COc1ccc([C@@H](C)NC(=O)c2cc(N3CCN(C)CC3)ccc2C)cc1Cl [Example 188, N-[(1R)-1-(3-Chloro-4-methoxy-phenyl)ethyl]-2-methyl-5-(4-methylpiperazin-1-yl)benzamide]
% Cell Viability [1, 2]: 84.9% | IC50 (SARS-CoV-2 PLpro; [3]): < 2 µM

Cc1ccc(N2CCN(C)CC2)cc1C(=O)N[C@H](C)c1cccc(-c2cccc(C(=O)N3CCCCC3)c2)c1 [Example 91, 2-Methyl-5-(4-methylpiperazin-1-yl)-N-[(1R)-1-[3-[3-(piperidine-1-carbonyl)phenyl]phenyl]ethyl]benzamide]
% Cell Viability [1, 2]: 27.1% | IC50 (SARS-CoV-2 PLpro; [3]): < 2 µM

COc1cc(-c2cn(C)nc2C)cc([C@@H](C)NC(=O)c2cc(N3CCCNCC3)ccc2C)c1 [Example 265, 5-(1,4-Diazepan-1-yl)-N-[(1R)-1-[3-(1,3-dimethylpyrazol-4-yl)-5-methoxy-phenyl]ethyl]-2-methyl-benzamide]
% Cell Viability [1, 2]: 40.7% | IC50 (SARS-CoV-2 PLpro; [3]): < 2 µM

C[C@@H]1CN(c2ccc(Cl)c(C(=O)N[C@H](C)c3cccc4ccccc34)c2)C[C@H](C)N1 [Example 133, 2-Chloro-5-[(3S,5R)-3,5-dimethylpiperazin-1-yl]-N-[(1R)-1-(1-naphthyl)ethyl]benzamide]
% Cell Viability [1, 2]: 0.1% | IC50 (SARS-CoV-2 PLpro; [3]): < 5 µM

COc1ccc([C@@H](C)NC(=O)c2cc(N3CCN(CCO)CC3)ccc2C)cc1-c1cnn(C)c1 [Example 273, 5-[4-(2-Hydroxyethyl)piperazin-1-yl]-N-[(1R)-1-[4-methoxy-3-(1-methylpyrazol-4-yl)phenyl]ethyl]-2-methyl-benzamide]
% Cell Viability [1, 2]: 92.6% | IC50 (SARS-CoV-2 PLpro; [3]): < 5 µM
